In article doi:10.1101/2025.07.08.663693v1 (biorxiv, 2025):

How the values were obtained:
[1] = molecular target: T1, hSLIT2-His (Homo sapiens, UniProt O94813); assay: TRIC/MST dose response; type: binding
T1 sequence (O94813 31-1529): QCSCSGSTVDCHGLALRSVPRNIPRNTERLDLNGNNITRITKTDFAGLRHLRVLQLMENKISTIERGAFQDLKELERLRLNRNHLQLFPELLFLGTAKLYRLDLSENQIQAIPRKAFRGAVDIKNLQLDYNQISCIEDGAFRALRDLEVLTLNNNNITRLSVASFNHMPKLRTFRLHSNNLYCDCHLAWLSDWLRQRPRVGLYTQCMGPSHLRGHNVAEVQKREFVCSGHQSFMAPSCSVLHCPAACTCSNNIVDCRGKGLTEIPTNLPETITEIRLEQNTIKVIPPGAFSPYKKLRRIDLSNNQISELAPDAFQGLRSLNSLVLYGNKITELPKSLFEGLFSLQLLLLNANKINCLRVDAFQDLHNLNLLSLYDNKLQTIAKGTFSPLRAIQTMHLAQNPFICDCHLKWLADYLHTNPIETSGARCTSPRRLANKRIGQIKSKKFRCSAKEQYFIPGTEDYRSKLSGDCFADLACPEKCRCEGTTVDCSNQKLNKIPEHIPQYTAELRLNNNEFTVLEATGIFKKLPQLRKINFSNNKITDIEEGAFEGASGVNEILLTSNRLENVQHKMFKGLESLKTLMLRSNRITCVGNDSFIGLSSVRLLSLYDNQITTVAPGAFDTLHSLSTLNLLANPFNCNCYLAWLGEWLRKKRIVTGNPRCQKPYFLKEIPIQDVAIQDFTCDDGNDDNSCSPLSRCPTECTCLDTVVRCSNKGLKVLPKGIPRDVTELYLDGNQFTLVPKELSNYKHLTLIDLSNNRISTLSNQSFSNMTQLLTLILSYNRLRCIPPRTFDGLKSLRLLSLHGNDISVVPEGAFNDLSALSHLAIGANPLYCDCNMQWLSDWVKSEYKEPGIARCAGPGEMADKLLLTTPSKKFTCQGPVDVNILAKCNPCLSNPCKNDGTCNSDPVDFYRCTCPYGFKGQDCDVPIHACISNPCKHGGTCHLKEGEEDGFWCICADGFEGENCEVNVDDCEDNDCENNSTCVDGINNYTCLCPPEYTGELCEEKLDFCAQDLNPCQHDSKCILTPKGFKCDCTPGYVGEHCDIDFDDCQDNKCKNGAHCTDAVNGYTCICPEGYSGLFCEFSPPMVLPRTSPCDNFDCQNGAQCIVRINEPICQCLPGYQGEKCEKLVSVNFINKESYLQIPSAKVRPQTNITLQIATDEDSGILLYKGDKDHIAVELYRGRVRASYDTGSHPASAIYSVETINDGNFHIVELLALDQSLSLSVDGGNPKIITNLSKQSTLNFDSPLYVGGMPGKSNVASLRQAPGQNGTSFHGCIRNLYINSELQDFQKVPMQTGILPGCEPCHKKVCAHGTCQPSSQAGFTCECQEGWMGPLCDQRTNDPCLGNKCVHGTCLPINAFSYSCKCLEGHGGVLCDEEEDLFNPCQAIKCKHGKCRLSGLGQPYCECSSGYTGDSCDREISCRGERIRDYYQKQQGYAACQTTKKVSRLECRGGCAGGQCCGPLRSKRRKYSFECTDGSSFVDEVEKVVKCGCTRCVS

[2] = molecular target: T2, SLIT2/ROBO1 (Homo sapiens, UniProt O94813); assay: TR-FRET SLIT2/ROBO1 interaction inhibition; type: binding
T2 sequence (O94813 31-1529): T1 sequence (O94813 31-1529)
T2 sequence (Q9Y6N7 26-897 partner limits assumed): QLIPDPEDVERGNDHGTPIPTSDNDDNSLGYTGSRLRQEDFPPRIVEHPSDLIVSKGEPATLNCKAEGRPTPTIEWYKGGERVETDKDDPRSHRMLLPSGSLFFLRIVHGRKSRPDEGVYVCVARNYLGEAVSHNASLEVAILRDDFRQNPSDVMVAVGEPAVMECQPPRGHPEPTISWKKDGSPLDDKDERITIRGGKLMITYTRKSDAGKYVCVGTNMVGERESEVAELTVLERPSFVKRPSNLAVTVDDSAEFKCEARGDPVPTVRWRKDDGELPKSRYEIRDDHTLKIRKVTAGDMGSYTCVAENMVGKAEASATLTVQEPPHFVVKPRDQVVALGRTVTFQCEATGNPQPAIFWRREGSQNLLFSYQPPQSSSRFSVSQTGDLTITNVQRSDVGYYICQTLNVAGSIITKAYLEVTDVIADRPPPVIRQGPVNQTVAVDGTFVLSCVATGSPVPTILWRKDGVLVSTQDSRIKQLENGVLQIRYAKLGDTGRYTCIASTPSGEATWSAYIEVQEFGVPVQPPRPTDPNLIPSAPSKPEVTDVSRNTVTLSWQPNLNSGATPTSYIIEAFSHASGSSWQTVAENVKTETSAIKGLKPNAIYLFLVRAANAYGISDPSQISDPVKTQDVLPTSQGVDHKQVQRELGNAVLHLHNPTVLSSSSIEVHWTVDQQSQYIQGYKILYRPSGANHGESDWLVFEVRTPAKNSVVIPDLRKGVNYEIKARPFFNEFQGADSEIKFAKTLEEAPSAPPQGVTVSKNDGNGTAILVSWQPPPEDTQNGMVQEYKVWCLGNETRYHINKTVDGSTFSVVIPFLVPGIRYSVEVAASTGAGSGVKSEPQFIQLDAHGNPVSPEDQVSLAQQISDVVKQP

- Kd [1]: 2.62 µM
- IC50 [2]: 22.8 ± 3.85 µM
SMILES: C=C(c1ccc(C(=O)O)cc1)c1cc2c(cc1C)C(C)(C)CCC2(C)C [bexarotene]
